Data as given in patent US12446583B2, “Methods of pest control in soybean” (SYNGENTA CROP PROTECTION AG, priority 2012, dated 2025).

System: Euschistus heros
Experiment: Euschistus heros (Neotropical Brown Stink Bug) contact/feeding activity on sprayed soybean plants
Format: in vivo
Conditions: for mortality at 50 ppm: 120 h, read-out: control (mortality and growth effects)
Experimental: Euschistus heros (Neotropical Brown Stink Bug) (Contact/Feeding Activity)
2 week old soybean plants are sprayed in a turn table spray chamber with the diluted spray solutions. After drying, 2 soybean seeds are added and plants are infested with 10 N-2 nymphs of the neotropical brown stink bug Euschistus heros in plastic test boxes. Boxes are incubated in a climate chamber at 25° C. and 60% RH. Evaluation is done 5 days after infestation on mortality and growth effects.
Compounds are tested according to the above method.

SMILES	mortality at 50 ppm	Control/% (application rate 0.8 ppm)	Control/% (application rate 3 ppm)	Control/% (application rate 12.5 ppm)
CCN1OCC(NC(=O)c2ccc(C3=NOC(c4cc(Cl)c(Cl)c(Cl)c4)(C(F)(F)F)C3)cc2C(F)(F)F)C1=O (stereo not shown) [Compound A5]	≥ 80%	–	–	–
CCN1OCC(NC(=O)c2ccc(C3=NOC(c4cc(Cl)cc(Cl)c4)(C(F)(F)F)C3)cc2Br)C1=O (stereo not shown) [Compound A2]	≥ 80%	–	–	–
Cc1cc(C2=NOC(c3cc(Cl)cc(Cl)c3)(C(F)(F)F)C2)ccc1C(=O)N[C@@H]1CON(CC(F)(F)F)C1=O (stereo partly shown) [Compound of the invention]	–	15%	85%	100%
Cc1cc(C2=NOC(c3cc(Cl)cc(Cl)c3)(C(F)(F)F)C2)ccc1C(=O)N[C@@H]1CON(Cc2ccccc2)C1=O (stereo partly shown) [Reference compound, reference compound]	–	0%	35%	90%
CCN1OCC(NC(=O)c2ccc(C3=NOC(c4cc(Cl)cc(Cl)c4)(C(F)(F)F)C3)cc2C)C1=O (stereo not shown) [Compound A17]	≥ 80%	–	–	–
CCN1OCC(NC(=O)c2ccc(C3=NOC(c4cc(Cl)c(Cl)c(Cl)c4)(C(F)(F)F)C3)cc2Cl)C1=O (stereo not shown) [Compound A1]	≥ 80%	–	–	–
CCN1OCC(NC(=O)c2ccc(C3=NOC(c4cc(Cl)c(Cl)c(Cl)c4)(C(F)(F)F)C3)cc2Br)C1=O (stereo not shown) [Compound A3]	≥ 80%	–	–	–
CCN1OCC(NC(=O)c2ccc(C3=NOC(c4cc(Cl)cc(Cl)c4)(C(F)(F)F)C3)cc2C(F)(F)F)C1=O (stereo not shown) [Compound A4]	≥ 80%	–	–	–
Cc1cc(C2=NOC(c3cc(Cl)cc(Cl)c3)(C(F)(F)F)C2)ccc1C(=O)NC1CON(C)C1=O (stereo not shown) [Compound A15]	≥ 80%	–	–	–
